Results reported in the NIST ThermoML archive (doi:10.1021/je060271a).
Numbers after ± are expanded uncertainties.

Conditions: Liquid, Vibrating tube method

Measured: mass density

CCCCCCCC(=O)OCC(COC(=O)CCCCCCC)(COC(=O)CCCCCCC)COC(=O)CCCCCCC [pentaerythritol tetraoctanoate]
986.9 ± 1.2 kg/m3: 283.15 K, 30985 kPa | 283.15 K, 31217 kPa | 283.15 K, 31260 kPa
988.6 ± 1.2 kg/m3: 283.15 K, 34371 kPa
988.5 ± 1.2 kg/m3: 283.15 K, 34229 kPa | 283.15 K, 34402 kPa | 283.15 K, 34407 kPa | 283.15 K, 34408 kPa | 283.15 K, 34409 kPa | 283.15 K, 34410 kPa
973.4 ± 1.2 kg/m3: 283.16 K, 5633.2 kPa
988.3 ± 1.2 kg/m3: 283.15 K, 33937 kPa | 283.15 K, 33959 kPa | 283.15 K, 34008 kPa | 283.15 K, 34177 kPa | 283.16 K, 34030 kPa | 283.16 K, 34053 kPa | 283.16 K, 34103 kPa
986.5 ± 1.2 kg/m3: 283.15 K, 30242 kPa | 283.15 K, 30330 kPa | 283.15 K, 30418 kPa | 283.15 K, 30459 kPa
987.9 ± 1.2 kg/m3: 283.15 K, 32996 kPa | 283.15 K, 33168 kPa | 283.15 K, 33209 kPa | 283.15 K, 33301 kPa
957.8 ± 1.2 kg/m3: 303.14 K, 3768.3 kPa | 303.14 K, 3800.7 kPa | 303.14 K, 3833.9 kPa | 303.14 K, 3920.2 kPa | 303.14 K, 3936.3 kPa | 303.14 K, 3956 kPa | 303.14 K, 3973 kPa | 303.14 K, 4024.9 kPa
988.1 ± 1.2 kg/m3: 283.15 K, 33492 kPa | 283.15 K, 33585 kPa | 283.15 K, 33684 kPa | 283.15 K, 33728 kPa | 283.15 K, 33754 kPa | 283.15 K, 33845 kPa
987.2 ± 1.2 kg/m3: 283.15 K, 31682 kPa | 283.15 K, 31781 kPa | 283.15 K, 31826 kPa | 283.15 K, 31928 kPa
958 ± 1.2 kg/m3: 303.14 K, 3988.9 kPa | 303.14 K, 4060.9 kPa
957.7 ± 1.2 kg/m3: 303.14 K, 3783 kPa | 303.14 K, 3818.7 kPa | 303.14 K, 3852.1 kPa | 303.14 K, 3867.4 kPa
987.8 ± 1.2 kg/m3: 283.15 K, 32868 kPa | 283.15 K, 33037 kPa | 283.15 K, 33127 kPa | 283.15 K, 33260 kPa | 283.16 K, 33086 kPa
986 ± 1.2 kg/m3: 283.15 K, 29659 kPa
982.7 ± 1.2 kg/m3: 283.16 K, 22773 kPa
988.2 ± 1.2 kg/m3: 283.15 K, 33636 kPa | 283.15 K, 33776 kPa | 283.15 K, 33797 kPa | 283.15 K, 33823 kPa | 283.15 K, 33867 kPa | 283.15 K, 33889 kPa | 283.15 K, 33986 kPa | 283.16 K, 33707 kPa
986.2 ± 1.2 kg/m3: 283.15 K, 29698 kPa | 283.15 K, 29782 kPa | 283.15 K, 29821 kPa
988.4 ± 1.2 kg/m3: 283.15 K, 33915 kPa | 283.15 K, 34126 kPa | 283.15 K, 34154 kPa | 283.15 K, 34205 kPa | 283.15 K, 34255 kPa | 283.15 K, 34282 kPa | 283.15 K, 34314 kPa | 283.15 K, 34342 kPa | 283.16 K, 34080 kPa
986.4 ± 1.2 kg/m3: 283.15 K, 29992 kPa | 283.15 K, 30032 kPa | 283.15 K, 30118 kPa | 283.15 K, 30158 kPa | 283.15 K, 30201 kPa | 283.15 K, 30289 kPa | 283.15 K, 30370 kPa
987.6 ± 1.2 kg/m3: 283.15 K, 32364 kPa | 283.15 K, 32442 kPa | 283.15 K, 32567 kPa | 283.15 K, 32614 kPa | 283.15 K, 32653 kPa | 283.15 K, 32740 kPa
987.7 ± 1.2 kg/m3: 283.15 K, 32700 kPa | 283.15 K, 32779 kPa | 283.15 K, 32819 kPa | 283.15 K, 32908 kPa | 283.15 K, 32947 kPa
987.3 ± 1.2 kg/m3: 283.15 K, 31976 kPa | 283.15 K, 32024 kPa | 283.15 K, 32078 kPa | 283.15 K, 32117 kPa | 283.15 K, 32279 kPa
957.9 ± 1.2 kg/m3: 303.14 K, 3885.9 kPa | 303.14 K, 4008.8 kPa | 303.14 K, 4044.7 kPa | 303.14 K, 4081.2 kPa
986.8 ± 1.2 kg/m3: 283.15 K, 30808 kPa | 283.15 K, 30942 kPa | 283.15 K, 31036 kPa | 283.15 K, 31079 kPa | 283.15 K, 31123 kPa | 283.15 K, 31174 kPa
986.6 ± 1.2 kg/m3: 283.15 K, 30500 kPa | 283.15 K, 30549 kPa | 283.15 K, 30590 kPa | 283.15 K, 30631 kPa | 283.15 K, 30673 kPa | 283.15 K, 30724 kPa | 283.15 K, 30850 kPa
986.1 ± 1.2 kg/m3: 283.15 K, 29618 kPa | 283.15 K, 29736 kPa
988 ± 1.2 kg/m3: 283.15 K, 33344 kPa | 283.15 K, 33396 kPa | 283.15 K, 33439 kPa | 283.15 K, 33538 kPa
986.7 ± 1.2 kg/m3: 283.15 K, 30766 kPa | 283.15 K, 30900 kPa
987.5 ± 1.2 kg/m3: 283.15 K, 32232 kPa | 283.15 K, 32317 kPa | 283.15 K, 32402 kPa | 283.15 K, 32488 kPa | 283.15 K, 32528 kPa
987.4 ± 1.2 kg/m3: 283.15 K, 32155 kPa | 283.15 K, 32186 kPa
987 ± 1.2 kg/m3: 283.15 K, 31312 kPa | 283.15 K, 31399 kPa | 283.15 K, 31539 kPa | 283.15 K, 31584 kPa
987.1 ± 1.2 kg/m3: 283.15 K, 31356 kPa | 283.15 K, 31451 kPa | 283.15 K, 31495 kPa | 283.15 K, 31637 kPa | 283.15 K, 31727 kPa | 283.15 K, 31872 kPa
986.3 ± 1.2 kg/m3: 283.15 K, 29859 kPa | 283.15 K, 29906 kPa | 283.15 K, 29946 kPa | 283.15 K, 30071 kPa
982.8 ± 1.2 kg/m3: 283.16 K, 22751 kPa
982.6 ± 1.2 kg/m3: 283.16 K, 22795 kPa
